From PMC3341351, “Down-Regulation of GABAA Receptor via Promiscuity with the Vasoactive Peptide Urotensin II Receptor. Potential Involvement in Astrocyte Plasticity” (PLoS ONE, 2012)

Key:
[1] = molecular target: T1, α2β3γ2 GABAAR co-expressed with human UT (Homo sapiens, UniProt Q9UKP6); experiment: Patch-clamp of Iso-evoked current in CHO-UT co-expressing α2β3γ2 GABAAR (CHO-UT-GABAAR); type: cell-based
T1 construct: expressed in transfected cells; host or cells: CHO-K1 stably expressing human UT (pIRES-neo2-UT), transiently nucleofected with GABAAR subunit cDNAs
T1 sequence (Q9UKP6 1-389): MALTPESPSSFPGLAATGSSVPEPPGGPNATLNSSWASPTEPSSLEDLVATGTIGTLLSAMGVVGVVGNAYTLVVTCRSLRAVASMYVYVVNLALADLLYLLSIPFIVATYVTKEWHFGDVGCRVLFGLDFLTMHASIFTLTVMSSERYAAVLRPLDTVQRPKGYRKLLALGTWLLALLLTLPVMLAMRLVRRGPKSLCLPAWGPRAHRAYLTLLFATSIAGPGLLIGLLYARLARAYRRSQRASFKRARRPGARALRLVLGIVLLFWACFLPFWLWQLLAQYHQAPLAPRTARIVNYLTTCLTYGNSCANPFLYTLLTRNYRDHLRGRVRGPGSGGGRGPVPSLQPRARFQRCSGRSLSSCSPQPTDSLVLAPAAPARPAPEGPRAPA
Protocol: CHO-K1 cell lines were obtained from American Type Culture Collection (Manassas, VA, USA). The human UT stable CHO (CHO-UT) was generously provided by Dr Christophe Dubessy (Inserm, Rouen University, France) et generated by CHO electroporation with 20 µg pIRES-neo2-UT DNA and 500 µg sterile sonicated salmon sperm DNA using the EasyJect One electroporation system (Equibio, Angleur, Belgium), followed by repetitive rounds of limiting dilution of cells in G-418 (400 µg/ml) for selection. Normal or stable CHO was grown in Ham-F12 medium supplemented with 10% FBS, 1% antibiotic-antimicotic solution and 2 mM glutamine, at 37°C in a humidified incubator with an atmosphere of 5% CO2. The stable CHO-UT medium was supplemented with the antibiotic G-418 (40 µg/ml).
For transfection, cells were trypsinized (0.05%), triturated in HamF-12 containing 10% FBS media, pelleted by centrifugation, resuspended in 100 µl solution V for nucleofection by an Amaxa Nucleofector Device (Köln, Germany; set to program U-016). Experiments were performed on normal CHO or on the stable CHO-UT cells and transiently transfected with combinations of cDNA encoding α2β3γ2, α2β3γ1, α2β1γ2, α2β3γ1, α2β3, β3γ2 (4 µg of cDNA total/transfection) GABAAR subunits. Cells were seeded on 14-mm poly-L-lysine-coated glass bottom insert dishes at 5×10^5 cells in a volume of 0.5 ml/dish. Cells were incubated overnight at 37°C in a humidified incubator (5% CO2) during 16 h before electrophysiological or immunocytochemical experiments.
GABAA receptor cDNA clones; α2, β1, β3, γ1 and γ2L engineered into the expression vector pCDM8 ([…], β1, γ2) or pcDNA/Amp (β3, γ1), were generously provided by Dr Wingrove (Merk Sharp and Dohme, Harlow, UK). To obtain β3 ^HA or γ2 ^HA epitope-tagged subunits, β3 or γ2 cDNA was amplified and the PCR product was subcloned using the SalI and NotI sites of pCMV-HA (Table S2) after digestion by the same restriction enzymes.
The conventional whole-cell configuration of the patch-clamp technique was used to study the GABA-gated currents in astrocytes and granule neurons, UT stably transfected CHO, CHO-UT, and CHO transiently transfected with diverse variants of UT and GABAAR subunits. After 24-h transfection, cell culture coverslips were placed in a small chamber (1.5 ml) on a stage of a right microscope DMLFSA (Leica, Heidelberg, Germany) and superfused continuously with the following bath solution containing (in mM): NaCl, 150; KCl, 2.5; HEPES, 5; CaCl2, 2; MgCl2, 1; glucose, 10 (pH 7.4 adjusted with NaOH). The patch pipettes were fabricated from 1.5 mm (outer diameter) soft glass tubes on a two-step vertical pipette puller (List-Medical, L/M-3P-A, Darmstadt, Germany). […] ATP and GTP were added to the internal solution used to fill electrode just before recording. All recordings were obtained at RT with cells voltage-clamped at −70 mV. The GABAA receptor agonist isoguvacine was prepared in the extracellular solution and was applied to cells by pneumatic pressure ejection. To prevent desenzitization, isoguvacine was more often ejected during 5 s at 2-min intervals. ATP, GTP, or guanosine 5′-O-(2-thiodiphosphate) (GDPβS) were administered through the patch pipette solution. We investigated the effect of competitive inhibition of GDP-GTP exchange by including GDPβS in the pipette solution (in addition to the normal amount of GTP). For GDPβS and the KIC, immediately following patch rupture, GABA current recordings were performed and the experiment was commenced after an equilibration period of 15 min.
All peptide ligands, inhibitors or allosteric modulators of the GABAA receptor function were applied via gravity through a plastic tubing positioned in the vicinity of the cell body in order to maintain a sustained perfusion. In these conditions, drugs could reach the cell of interest after 30 s of perfusion. Isoguvacine was applied focally by pneumatic pressure ejection from a micropipette.

[2] = system: GABAAR co-expressed with UT^HA 351, UT^HA 332 or UT^HA 319; experiment: Patch-clamp of Iso-evoked current in CHO co-expressing GABAAR and shorter truncated UT (UT^HA 351, UT^HA 332, UT^HA 319); type: cell-based; conditions: hUII 10^−8 M, 1 min; Iso 10^−4 M, 2 s
From the text: For UT epitope-tagged with HA (UT^HA), or c-myc (UT^c-myc), human UT receptor cDNA inserted into pcDNA3.1 (Ressource Center, MI, USA) was amplified and PCR products were subcloned using the EcoRI and XhoI sites of pCMV-HA or pCMV-c-myc. Mutant UT receptor cDNAs were constructed by oligonucleotide-directed mutagenesis (Expand High Fidelity PCR System; Roche) using the human UT receptor cDNA inserted into pcDNA3.1 as a template. Two sets of forward and reverse oligonucleotides were used (Table S2) to introduce stop codons in frame of Leu370, Phe351, Gly332 and Thr319 (to generate UT371, UT351, UT332 and UT319, respectively). PCR products were subcloned using the EcoRI and XhoI sites of pCMV-HA after digestion by the same restriction enzymes. Mutagenesis was confirmed by automated nucleotide sequencing.
The conventional whole-cell configuration of the patch-clamp technique was used to study the GABA-gated currents in astrocytes and granule neurons, UT stably transfected CHO, CHO-UT, and CHO transiently transfected with diverse variants of UT and GABAAR subunits. After 24-h transfection, cell culture coverslips were placed in a small chamber (1.5 ml) on a stage of a right microscope DMLFSA (Leica, Heidelberg, Germany) and superfused continuously with the following bath solution containing (in mM): NaCl, 150; KCl, 2.5; HEPES, 5; CaCl2, 2; MgCl2, 1; glucose, 10 (pH 7.4 adjusted with NaOH). […]

| Compound | Apparent desensitization of Iso-evoked current ([1]; Iso 10^−4 M continuous ejection, control (Iso alone) or with hUII 10^−8 M) [%] | Chloride reversal potential (EqCl^−) ([1]; I–V relationship, Iso 10^−4 M without (control) or with hUII 10^−8 M) [mV] | Mean time constant of recovery from desensitization (50% receptors) ([1]; after long Iso exposure (30 s), control (Iso alone) or with hUII) [s] | hUII effect on GABAAR activity with shorter truncated UT forms [2] |
| --- | --- | --- | --- | --- |
| O=C(O)C1=CCNCC1 [Iso, isoguvacine] | 59 | 4.84 | 16.2 | – |
| ETPDCFWKYCV (disulfide) [hUII, human urotensin II, synthesized by solid phase methodology] | – | – | – | totally failed to alter the GABAAR activity |
